What all share (assay): relative viability (nuclei count vs DMSO), 5 days (fraction); higher = more cells survive
Compound in the experiment “KIN001-266 + Phenformin”: CCN1CCC(CC1)N2C=C(N=N2)CNC3=CC4=C(C(=CN=C4C(=C3)Cl)C#N)NC5=CC(=C(C=C5)F)Cl [KIN001-266] + N=C(N)NC(=N)NCCc1ccccc1 [Phenformin] (partner 250 µM)
A digest of the protocol:
(§1)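 Lung cancer cell lines in 1536-well plates got either a single drug or a fixed anchor-drug dose together with five library-drug doses (not always all listed) in √10 steps, by pin tool, on the day after seeding. Nuclei were counted after 5 days, and relative viability is the treated-to-vehicle ratio of nuclei counts. Values are medians of duplicate plates.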

Compound in the experiment “KIN001-266 + Palbociclib”: CCN1CCC(CC1)N2C=C(N=N2)CNC3=CC4=C(C(=CN=C4C(=C3)Cl)C#N)NC5=CC(=C(C=C5)F)Cl [KIN001-266] + CC(=O)c1c(C)c2cnc(Nc3ccc(N4CCNCC4)cn3)nc2n(C2CCCC2)c1=O [Palbociclib] (partner 0.5 µM)
The procedure, abridged:
as §1

Compound in the experiment “KIN001-266 + Pictilisib”: CCN1CCC(CC1)N2C=C(N=N2)CNC3=CC4=C(C(=CN=C4C(=C3)Cl)C#N)NC5=CC(=C(C=C5)F)Cl [KIN001-266] + CS(=O)(=O)N1CCN(Cc2cc3nc(-c4cccc5[nH]ncc45)nc(N4CCOCC4)c3s2)CC1 [Pictilisib] (partner 1 µM)
A digest of the protocol: as §1

Compound in the experiment “KIN001-266 + Decitabine”: CCN1CCC(CC1)N2C=C(N=N2)CNC3=CC4=C(C(=CN=C4C(=C3)Cl)C#N)NC5=CC(=C(C=C5)F)Cl [KIN001-266] + Nc1ncn([C@H]2C[C@H](O)[C@@H](CO)O2)c(=O)n1 [Decitabine] (partner 2 µM)
A digest of the protocol:
as §1

On to NCI-H1650, for which the relative viability stood at 0.479 in the experiment with KIN001-266 + Phenformin (first compound 0.08 µM); 0.448 with KIN001-266 + Phenformin (first compound 0.253 µM); 0.326 in the experiment with KIN001-266 + Phenformin (first compound 0.8 µM); 0.261 with KIN001-266 + Phenformin (first compound 2.53 µM); 0.305 with KIN001-266 + Phenformin (first compound 8 µM); 0.407 in the experiment with KIN001-266 + Palbociclib (first compound 0.08 µM). For the same cell line, the relative viability was 0.362 with KIN001-266 + Palbociclib (first compound 0.253 µM); 0.377 with KIN001-266 + Palbociclib (first compound 0.8 µM); 0.267 with KIN001-266 + Palbociclib (first compound 2.53 µM); 0.196 with KIN001-266 + Palbociclib (first compound 8 µM); 0.618 with KIN001-266 + Pictilisib (first compound 0.08 µM); 0.621 with KIN001-266 + Pictilisib (first compound 0.253 µM). Moreover, the relative viability with KIN001-266 + Pictilisib (first compound 0.8 µM) stood at 0.554; in the experiment with KIN001-266 + Pictilisib (first compound 2.53 µM), 0.524; with KIN001-266 + Pictilisib (first compound 8 µM), 0.479; in the experiment with KIN001-266 + Decitabine (first compound 0.08 µM) it was 0.396; with KIN001-266 + Decitabine (first compound 0.253 µM), 0.43; in the experiment with KIN001-266 + Decitabine (first compound 0.8 µM), 0.426. The figures for the relative viability in the experiment with KIN001-266 + Decitabine (first compound 2.53 µM) and with KIN001-266 + Decitabine (first compound 8 µM) were 0.544 and 0.388, respectively.
Turning to RERF-LC-KJ, the relative viability in the experiment with KIN001-266 + Phenformin (first compound 0.08 µM) was determined as 0.436; in the experiment with KIN001-266 + Phenformin (first compound 0.253 µM) it was 0.354; in the experiment with KIN001-266 + Phenformin (first compound 0.8 µM), 0.415; with KIN001-266 + Phenformin (first compound 2.53 µM), 0.355; in the experiment with KIN001-266 + Phenformin (first compound 8 µM), 0.345; with KIN001-266 + Palbociclib (first compound 0.08 µM), 1.14. For the same cell line, the relative viability is 1.07 in the experiment with KIN001-266 + Palbociclib (first compound 0.253 µM); 1.13 in the experiment with KIN001-266 + Palbociclib (first compound 0.8 µM); 1.11 in the experiment with KIN001-266 + Palbociclib (first compound 2.53 µM); 0.83 with KIN001-266 + Palbociclib (first compound 8 µM); 0.537 with KIN001-266 + Pictilisib (first compound 0.08 µM); 0.554 in the experiment with KIN001-266 + Pictilisib (first compound 0.253 µM). Further, the relative viability with KIN001-266 + Pictilisib (first compound 0.8 µM) stood at 0.516; with KIN001-266 + Pictilisib (first compound 2.53 µM) it was 0.635; with KIN001-266 + Pictilisib (first compound 8 µM) it was 0.315; in the experiment with KIN001-266 + Decitabine (first compound 0.08 µM), 0.744; with KIN001-266 + Decitabine (first compound 0.253 µM), 0.777; in the experiment with KIN001-266 + Decitabine (first compound 0.8 µM), 0.767. Also, the results for the relative viability with KIN001-266 + Decitabine (first compound 2.53 µM) and in the experiment with KIN001-266 + Decitabine (first compound 8 µM) were 0.64 and 0.497, respectively.
Turning to NCI-H1915, the relative viability was 0.365 with KIN001-266 + Phenformin (first compound 0.08 µM); 0.379 with KIN001-266 + Phenformin (first compound 0.253 µM); 0.354 in the experiment with KIN001-266 + Phenformin (first compound 0.8 µM); 0.379 in the experiment with KIN001-266 + Phenformin (first compound 2.53 µM); 0.36 with KIN001-266 + Phenformin (first compound 8 µM); 0.546 with KIN001-266 + Palbociclib (first compound 0.08 µM). The relative viability with KIN001-266 + Palbociclib (first compound 0.253 µM) was 0.599; with KIN001-266 + Palbociclib (first compound 0.8 µM), 0.514; with KIN001-266 + Palbociclib (first compound 2.53 µM) it was 0.543; with KIN001-266 + Palbociclib (first compound 8 µM) it was 0.389; with KIN001-266 + Pictilisib (first compound 0.08 µM), 1.03; in the experiment with KIN001-266 + Pictilisib (first compound 0.253 µM), 0.949. The relative viability in the experiment with KIN001-266 + Pictilisib (first compound 0.8 µM) is 0.947; in the experiment with KIN001-266 + Pictilisib (first compound 2.53 µM), 1.05; in the experiment with KIN001-266 + Pictilisib (first compound 8 µM), 0.781; in the experiment with KIN001-266 + Decitabine (first compound 0.08 µM), 0.28; in the experiment with KIN001-266 + Decitabine (first compound 0.253 µM), 0.287; with KIN001-266 + Decitabine (first compound 0.8 µM), 0.249. For the same cell line, the relative viability with KIN001-266 + Decitabine (first compound 2.53 µM) was 0.265; in the experiment with KIN001-266 + Decitabine (first compound 8 µM), 0.278.
Regarding NCI-H2009, the relative viability with KIN001-266 + Phenformin (first compound 0.08 µM) worked out at 0.455; with KIN001-266 + Phenformin (first compound 0.253 µM) it was 0.432; with KIN001-266 + Phenformin (first compound 0.8 µM), 0.441; with KIN001-266 + Phenformin (first compound 2.53 µM) it was 0.319; with KIN001-266 + Phenformin (first compound 8 µM), 0.262; in the experiment with KIN001-266 + Palbociclib (first compound 0.08 µM) it was 0.203. Besides, the relative viability with KIN001-266 + Palbociclib (first compound 0.253 µM) is 0.257; with KIN001-266 + Palbociclib (first compound 0.8 µM), 0.253; with KIN001-266 + Palbociclib (first compound 2.53 µM), 0.208; in the experiment with KIN001-266 + Palbociclib (first compound 8 µM), 0.203; in the experiment with KIN001-266 + Pictilisib (first compound 0.08 µM) it was 0.852; with KIN001-266 + Pictilisib (first compound 0.253 µM) it was 0.935. For the same cell line, the relative viability with KIN001-266 + Pictilisib (first compound 0.8 µM) stood at 1.02; in the experiment with KIN001-266 + Pictilisib (first compound 2.53 µM), 0.669; in the experiment with KIN001-266 + Pictilisib (first compound 8 µM) it was 0.48; in the experiment with KIN001-266 + Decitabine (first compound 0.08 µM), 0.394; with KIN001-266 + Decitabine (first compound 0.253 µM), 0.367; in the experiment with KIN001-266 + Decitabine (first compound 0.8 µM) it was 0.437. The results for the relative viability with KIN001-266 + Decitabine (first compound 2.53 µM) and in the experiment with KIN001-266 + Decitabine (first compound 8 µM) were 0.357 and 0.391, respectively.
